Measurements taken from US7517658B2, “Methods for preparing compositions using a SNORF33 receptor” (H. Lundbeck A/S, priority 1999, dated 2009).

What was measured:
rat SNORF33 = biological target: T1, rat SNORF33 (Rattus norvegicus, UniProt Q923Y9); experiment: cAMP response in stable rat SNORF33/HEK293 cells; format: cell-based; settings: data not shown
T1 construct: expressed in transfected cells
Procedure: The receptor-mediated stimulation or inhibition of cyclic AMP (cAMP) formation may be assayed in cells expressing the mammalian receptors. Cells are plated in 96-well plates or other vessels and preincubated in a buffer such as HEPES buffered saline (NaCl (150 mM), CaCl2 (1 mM), KCl (5 mM), glucose (10 mM)) supplemented with a phosphodiesterase inhibitor such as 5 mM theophylline, with or without protease inhibitor cocktail (For example, a typical inhibitor cocktail contains 2 μg/ml aprotinin, […] leupeptin, and 10 μg/ml phosphoramidon.) for 20 min at 37° C., in 5% CO2. Test compounds are added with or without […] forskolin and incubated for an additional 10 min at 37° C. The medium is then aspirated and the reaction stopped by the addition of 100 mM HCl or other methods. The plates are stored at 4° C. for 15 min, and the cAMP content in the stopping solution is measured by radioimmunoassay. Radioactivity may be quantified using a gamma counter equipped with data reduction software. Specific modifications may be performed to optimize the assay for the receptor or to alter the detection method of cAMP.

hSNORF33 = biological target: T2, hSNORF33 (Homo sapiens, UniProt Q96RJ0); experiment: Electrophysiological response of Xenopus oocytes expressing hSNORF33 and CFTR; format: cell-based; set-up: expressed in transfected cells; host or cells: Xenopus laevis oocytes (mRNA injection, co-expressed CFTR); settings: 100 μM tyramine; dependent on CFTR co-expression
T2 sequence (Q96RJ0 1-339): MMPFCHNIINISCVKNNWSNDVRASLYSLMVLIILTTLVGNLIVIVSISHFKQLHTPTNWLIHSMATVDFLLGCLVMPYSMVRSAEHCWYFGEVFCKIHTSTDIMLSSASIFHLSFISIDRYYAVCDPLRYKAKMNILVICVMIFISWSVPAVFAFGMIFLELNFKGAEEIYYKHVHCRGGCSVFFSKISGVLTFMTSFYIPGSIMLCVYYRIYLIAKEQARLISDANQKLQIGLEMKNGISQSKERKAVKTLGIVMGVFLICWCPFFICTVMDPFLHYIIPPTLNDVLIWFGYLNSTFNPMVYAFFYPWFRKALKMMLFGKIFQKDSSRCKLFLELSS
Procedure: Unless otherwise specified, oocytes were voltage clamped at a holding potential of −80 mV. During recordings, oocytes were bathed in continuously flowing (1-3 ml/min) medium containing 96 mM NaCl, 2 mM KCl, 1.8 mM CaCl2, 1 mM MgCl2, and 5 mM HEPES, pH 7.5 (ND96). […] Experiments were carried out at room temperature.

T1 sequence (Q923Y9 whole entry): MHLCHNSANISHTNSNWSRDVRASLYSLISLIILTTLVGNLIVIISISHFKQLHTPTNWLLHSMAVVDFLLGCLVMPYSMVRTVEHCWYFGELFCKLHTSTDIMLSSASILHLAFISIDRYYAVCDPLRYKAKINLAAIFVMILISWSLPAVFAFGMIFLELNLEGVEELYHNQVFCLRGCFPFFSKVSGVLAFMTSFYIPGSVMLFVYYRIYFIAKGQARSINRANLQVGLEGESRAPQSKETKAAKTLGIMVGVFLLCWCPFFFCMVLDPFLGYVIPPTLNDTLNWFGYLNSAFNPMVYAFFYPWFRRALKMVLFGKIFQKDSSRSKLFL

For `NCCc1ccc(O)cc1` [Tyramine (TYR), Tyramine], the “Increase in cAMP” value (rat SNORF33) was about 4 fold and the “Stimulation of hSNORF33 currents” value (hSNORF33) was “strongly stimulated”.
